The source of these data is ChEMBL document CHEMBL1128814, “Non-peptide neuropeptide y antagonists derived from the histamine H2 agonist arpromidine: Role of the guanidine group” (Bioorg Med Chem Lett, 1995).

In test [1] the target is T1, Neuropeptide Y receptor type 1 (Homo sapiens) (UniProt P25929).
T1 sequence (whole entry): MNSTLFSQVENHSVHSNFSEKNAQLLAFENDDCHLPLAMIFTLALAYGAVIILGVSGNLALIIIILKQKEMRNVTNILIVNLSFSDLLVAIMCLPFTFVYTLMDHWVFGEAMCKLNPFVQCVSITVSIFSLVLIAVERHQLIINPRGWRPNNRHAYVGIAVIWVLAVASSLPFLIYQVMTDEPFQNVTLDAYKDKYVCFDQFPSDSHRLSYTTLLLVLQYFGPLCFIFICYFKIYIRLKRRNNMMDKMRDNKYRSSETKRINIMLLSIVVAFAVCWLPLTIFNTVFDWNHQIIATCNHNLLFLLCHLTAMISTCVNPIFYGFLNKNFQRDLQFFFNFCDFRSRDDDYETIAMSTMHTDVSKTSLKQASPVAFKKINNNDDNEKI
Kind of test: Tested for inhibition of NPY-induced increase in [Ca2+] at 100 uM concentration in human erythroleukemia cells. The class given is functional.

Test [2] has as its target T1, Neuropeptide Y receptor type 1 (Homo sapiens). Kind of test: Tested for inhibition of NPY-induced increase in [Ca2+] at 10 uM concentration in human erythroleukemia cells. Type of test: functional.
The target of test [3] is Histamine H1 receptor (Cavia porcellus) (UniProt P31389). Kind of test: Antagonistic activity (H1 antagonism) evaluated by the inhibition of histamine-stimulated contraction in guinea pig ileum at a concentration of 1E-7 - 1E-4 M. The class given is functional, tissue-based.
Test [4] addresses Histamine H2 receptor (Cavia porcellus) (UniProt P47747). Kind of test: Intrinsic activity was evaluated against H2 receptor in guinea pig atrium. The class given is tissue-based. Particulars: Cardiac atrium.
Test [5] shares this target. Kind of test: Histamine H2 receptor agonistic activity was evaluated by the inhibition of histamine-stimulated contraction in guinea pig atrium. The class given is functional, tissue-based. The settings on record: Cardiac atrium.
The target of test [6] is T1, Neuropeptide Y receptor type 1 (Homo sapiens). Kind of test: (§1) pA2 for inhibition of NPY-stimulated [Ca2+] mobilization in HEL cells. Type of test: cell-based.
Test [7] has as its target Histamine H2 receptor (Cavia porcellus) (UniProt P47747). Kind of test: Histamine H2 receptor […] activity (positive chronotropism) was evaluated by the inhibition of histamine-stimulated contraction in guinea pig atrium at a concentration of 1E-7 - 1E-4 M. The class given is functional, tissue-based. Particulars: Cardiac atrium.
Test [8] has as its target T2, Neuropeptide Y receptor type 1 (Homo sapiens, UniProt P25929).
T2 sequence (P25929 whole entry): T1 sequence (whole entry)
The description is as §1. The class given is functional, cell-based. The settings on record: read-out: pA2 (converted).

Test [9] addresses T1, Neuropeptide Y receptor type 1 (Homo sapiens). Kind of test: Tested for inhibition of NPY-induced increase in [Ca2+] at 10 uM concentration in human erythroleukemia cells; Not determined; inactive. Type of test: functional.
In test [10] the target is Histamine H2 receptor (Cavia porcellus) (UniProt P47747). Kind of test: Intrinsic activity was evaluated against H2 receptor in guinea pig atrium at a concentration of 1E-7 - 1E-4 M. Type of test: tissue-based. Particulars: Cardiac atrium.
For test [11] the target is unchanged. Kind of test: Histamine H2 receptor agonistic activity (positive chronotropism) was evaluated by the inhibition of histamine-stimulated contraction in guinea pig atrium; Inactive. Type of test: functional, tissue-based. Particulars: Cardiac atrium.
Test [12] has as its target T1, Neuropeptide Y receptor type 1 (Homo sapiens). Kind of test: Tested for inhibition of NPY-induced increase in [Ca2+] at 10 uM concentration in human erythroleukemia cells; inactive. The class given is functional.
The target in test [13] is Histamine H2 receptor (Cavia porcellus) (UniProt P47747). Kind of test: Intrinsic activity was evaluated in guinea pig atrium at a concentration of 1E-7 - 1E-4 M. Particulars: Cardiac atrium. Type of test: tissue-based.
Test [14] addresses T1, Neuropeptide Y receptor type 1 (Homo sapiens). Kind of test: Tested for inhibition of NPY-induced increase in [Ca2+] at 10 uM concentration in human erythroleukemia cells; Not determined. The class given is functional.
The target is the same in test [15]. Kind of test: Tested for inhibition of NPY-induced increase in [Ca2+] at 100 uM concentration in human erythroleukemia cells; inactive. The class given is functional.

Activity calls are given as the source filed them. The calls are words filed in the database; no cut-off is given here.

Sequence of Histamine H1 receptor (Cavia porcellus) (P31389 whole entry): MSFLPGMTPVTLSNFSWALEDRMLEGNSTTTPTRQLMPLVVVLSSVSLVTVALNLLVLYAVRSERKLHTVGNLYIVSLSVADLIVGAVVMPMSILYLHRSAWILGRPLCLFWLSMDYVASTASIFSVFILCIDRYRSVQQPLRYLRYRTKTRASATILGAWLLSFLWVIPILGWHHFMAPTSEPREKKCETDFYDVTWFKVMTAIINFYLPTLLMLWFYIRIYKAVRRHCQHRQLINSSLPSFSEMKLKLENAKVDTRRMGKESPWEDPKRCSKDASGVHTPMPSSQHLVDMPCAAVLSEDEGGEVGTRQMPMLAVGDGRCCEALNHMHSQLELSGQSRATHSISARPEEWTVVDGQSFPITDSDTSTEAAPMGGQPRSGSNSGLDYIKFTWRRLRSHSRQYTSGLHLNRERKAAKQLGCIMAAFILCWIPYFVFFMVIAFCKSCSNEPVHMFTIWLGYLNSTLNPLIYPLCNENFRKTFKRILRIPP
Sequence of Histamine H2 receptor (Cavia porcellus) (P47747 whole entry): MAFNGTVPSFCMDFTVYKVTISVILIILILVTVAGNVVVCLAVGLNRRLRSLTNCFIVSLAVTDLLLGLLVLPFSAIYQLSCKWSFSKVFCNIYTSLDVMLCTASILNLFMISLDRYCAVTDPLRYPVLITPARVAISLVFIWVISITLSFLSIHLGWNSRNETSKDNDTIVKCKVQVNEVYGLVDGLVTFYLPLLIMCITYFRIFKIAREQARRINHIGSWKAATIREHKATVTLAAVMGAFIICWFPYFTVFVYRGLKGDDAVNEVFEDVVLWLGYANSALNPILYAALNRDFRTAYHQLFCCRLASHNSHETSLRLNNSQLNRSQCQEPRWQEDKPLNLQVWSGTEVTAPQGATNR

As usually defined, the inhibition is the share of the control response that was lost under treatment. For `NC(=O)N/C(=N\CCC(c1ccc(F)cc1)c1ccccn1)NCCCc1c[nH]cn1` (stereo unspecified), the inhibition in [1] stood at 62%; in [2], 2%.
In general, pKB refers to the KB on a negative log10 scale, so that one unit is a factor of ten. In turn, `N=C(NCCCc1c[nH]cn1)NCCCC(c1ccccc1)c1ccccn1` (stereo unspecified) displayed a pKB in test [3] of 6.06. Moreover, the Intrinsic activity in test [4] worked out at 1. Moreover, the pD2 in [5] was determined as 6.61. Further, the inhibition was found to be 84% in [1] and 8% in test [2].
Turning to `Fc1ccc(C(CCCNCCCc2c[nH]cn2)c2ccccn2)cc1` (stereo unspecified), the pKB in test [3] amounted to 6.43. Besides, in test [4], the Intrinsic activity was 0.5. The same molecule returned a pD2 in [5] of 5.17. The inhibition in test [1] turned out to be 24%.
As to `N=C(NCCCc1c[nH]cn1)NCCC(c1ccc(Br)cc1)c1ccccn1` (stereo unspecified), in test [3], the pKB was 6.92. The molecule also showed an Intrinsic activity in test [4] of 1. In test [5], this molecule gave a pD2 of 7.48. In addition, the results for the inhibition in test [1] and in test [2] were 85% and 27%, respectively.
In turn, `CN/C(=N\CCC(c1ccc(F)cc1)c1ccccn1)NCCCc1c[nH]cn1` (stereo unspecified) gave a pKB in [3] of 5.08. In test [4], this molecule gave an Intrinsic activity of 1. In test [5], this molecule came in with a pD2 of 5.65. In addition, in test [1], the inhibition amounted to 13%.
For the molecule `N=C(NCCCc1c[nH]cn1)NCCC(c1ccc(Cl)c(Cl)c1)c1ccccn1` (stereo unspecified), the pKB came out at 7.1 in test [3] and 6.25 in test [6]. Moreover, in test [4], the Intrinsic activity was 1. The same molecule returned a pD2 in test [5] of 8.19. Moreover, the inhibition in [1] amounted to 93%; in test [2] it was 81%.
Turning to `Cc1ccc(CC(CC/N=C(/NCCCc2c[nH]cn2)NC2CCCCC2)c2ccccn2)cc1` (stereo unspecified), the figures for the pKB in [3] and in [7] were 5.4 and 5.93, respectively. This molecule also had an Intrinsic activity in test [4] of 1. For the same molecule, the figures for the inhibition in [1] and in test [2] were 75% and 24%, respectively.
As to `N=C(NCCCc1c[nH]cn1)NCCC(c1cc(F)cc(F)c1)c1ccccn1` (stereo unspecified), the pKB in test [3] turned out to be 6.56. In test [4], this molecule showed an Intrinsic activity of 1. In test [8], the Kb was 37.2 µM. The same molecule registered a pD2 in test [5] of 8.05. Besides, in test [1], the inhibition stood at 62%.
The molecule `N=C(CCCCc1c[nH]cn1)NCCC(c1ccc(F)cc1)c1ccccn1` (stereo unspecified) displayed a pKB in test [3] of 6.56. Besides, in test [4], the Intrinsic activity was found to be 0.6. In test [5], this molecule displayed a pD2 of 6.47. Also, the inhibition in test [1] came out at 27%; in test [2], 5%.
`O=C(CCC(c1ccc(F)cc1)c1ccccn1)NCCCc1c[nH]cn1` (stereo unspecified) had a pKB in [3] of 3.97. Moreover, the inhibition entry in [9] was “inactive”. In [5], this molecule returned a pD2 of less than 3. Also, the Intrinsic activity in test [10] was determined as 1.
As to `N=C(NCCCc1c[nH]cn1)NCCC(c1ccccc1)c1ccccn1` (stereo unspecified), the pKB in test [3] was determined as 7.01. This molecule also came in with an Intrinsic activity in [4] of 1. Besides, the pD2 in test [5] was 7.39. Further, the figures for the inhibition in [1] and in test [2] were 69% and 2%, respectively.
`N#CN/C(=N\CCC(c1ccc(F)cc1)c1ccccn1)NCCCc1c[nH]cn1` (stereo unspecified): the pD2 entry in test [11] was “inactive”. This molecule had an inhibition in test [1] of 13%. Moreover, the inhibition entry in test [12] was “inactive”.
On to `Brc1ccc(C(CC/N=C(/NCCCc2c[nH]cn2)Nc2ccccc2)c2ccccn2)cc1` (stereo unspecified), for which the pKB in [3] was found to be 5.81; in [7], 5.14. Also, in test [13], the Intrinsic activity came out at 1. Also, the inhibition in test [1] is 76%; in test [2], 24%.
`N=C(CCC(c1ccccc1)c1ccccn1)NCCCc1c[nH]cn1` (stereo unspecified) came in with a pKB in test [3] of 6.45. This molecule also registered an Intrinsic activity in test [4] of 1. This molecule gave a pD2 in [5] of 6.5. For the same molecule, in test [1], the inhibition was 45%.
Regarding `c1ccc(C(CCC/N=C(/NCCCc2c[nH]cn2)NC2CCCCC2)c2ccccn2)cc1` (stereo unspecified), the pKB in test [3] turned out to be 5.56. In [4], this molecule yielded an Intrinsic activity of 0.25. In [5], this molecule came in with a pD2 of 4.49. The results for the inhibition in test [1] and in test [2] were 53% and 6%, respectively.
Turning to `Cc1ccc(CC(CC/N=C(\N)NCCCc2c[nH]cn2)c2ccccn2)cc1` (stereo unspecified), the pKB in test [3] was 6.4. In [4], this molecule displayed an Intrinsic activity of 1. The molecule also displayed a pD2 in [5] of 5.81. In [2], this molecule came in with an inhibition of 23%.
`CN/C(=N\CCC(c1ccc(Br)cc1)c1ccccn1)NCCCc1c[nH]cn1` (stereo unspecified) yielded a negative-log KB (pKB) in test [3] of 5.71. Moreover, in test [4], the Intrinsic activity amounted to 0.9. Also, the pD2 in test [5] turned out to be 5.75. The inhibition in test [1] is 38%. In test [12], the inhibition entry is “inactive”.
In turn, `Clc1ccc(C(CCC/N=C(/NCCCc2c[nH]cn2)NC2CCCCC2)c2ccccn2)cc1Cl` (stereo unspecified) returned a pKB in test [3] of 5.76. Besides, the inhibition amounted to 30% in [14] and 87% in [1]. Also, the Intrinsic activity in [4] came out at 1. Besides, in test [5], the pD2 turned out to be 4.65.
Take `CCOC(=O)N/C(=N\CCC(c1ccc(F)cc1)c1ccccn1)NCCCc1c[nH]cn1` (stereo unspecified): the pKB in [3] was 5.3. Also, the pD2 entry in test [11] was “inactive”. In addition, the inhibition came out at 4% in [1] and 2% in [2].
For `N=C(N)NCCC(c1ccc(F)cc1)c1ccccn1` (stereo unspecified), the negative-log KB (pKB) in test [3] was 6.44. In [15], the inhibition entry was “inactive”. Moreover, the pD2 result in test [11] is “inactive”.
Regarding `Clc1ccc(C(CCC/N=C(/NCCCc2c[nH]cn2)Nc2ccccc2)c2ccccn2)cc1Cl` (stereo unspecified), the negative logarithm of the KB (pKB) in test [3] is 5.5; in test [7], 4.97. Moreover, the results for the inhibition in [14] and in [1] were 48% and 78%, respectively. The Intrinsic activity in test [10] was 1.
`Brc1ccc(C(CC/N=C(/NCCCc2c[nH]cn2)NC2CCCCC2)c2ccccn2)cc1` (stereo unspecified): the negative logarithm of the KB (pKB) in test [3] was 5.42. Further, the Intrinsic activity in [4] is 0.65. This molecule also gave a pD2 in [5] of 4.69. The inhibition in test [1] was found to be 82%; in test [2], 36%.
The molecule `N=C(NCCCc1c[nH]cn1)NCCC(c1ccc(F)cc1)c1ccccn1` (stereo unspecified) registered a pKB in [3] of 7.65. In test [4], this molecule came in with an Intrinsic activity of 1. For the same molecule, the pD2 in test [5] turned out to be 8.01. Further, the inhibition in test [1] was 75%; in test [2], 18%.
Molecule `N=C(NCCCc1c[nH]cn1)NCCCC(c1ccc(Cl)c(Cl)c1)c1ccccn1` (stereo unspecified) displayed a pKB in test [3] of 7.46. Also, the Intrinsic activity in test [4] came out at 1. Also, in test [5], the pD2 is 6.67. The inhibition in test [1] is 78%; in [2], 31%.
As to `CN(CCC(c1ccc(F)cc1)c1ccccn1)C(=N)NCCCc1c[nH]cn1` (stereo unspecified), the pKB in test [3] turned out to be 5.96. In test [4], the Intrinsic activity is 0.8. The same molecule had a pD2 in test [5] of 5.4. This molecule yielded an inhibition in test [1] of 42%.
Turning to `CN/C(=N\CCCC(c1ccc(Cl)c(Cl)c1)c1ccccn1)NCCCc1c[nH]cn1` (stereo unspecified), in [3], the pKB turned out to be 6.16. In addition, the Intrinsic activity in [4] worked out at 1. The pD2 in test [5] came to 5.58. In addition, in test [1], the inhibition turned out to be 41%.
